Test results published in ChEMBL document CHEMBL1155491, “Acylurea connected straight chain hydroxamates as novel histone deacetylase inhibitors: Synthesis, SAR, and in vivo antitumor activity” (Bioorg Med Chem Lett, 2010).
Converted amounts (≈) assume the structure as drawn. The source made the active and inactive calls. No cut-off for these calls is given here.

Columns and labels:
[1] = Cmax in mouse plasma at 50 mg/kg, po; format: ADME, organism-based; set-up: dose 50 mg/kg, route oral
[2] = target: T1, Protein deacetylase HDAC6 (Homo sapiens, UniProt Q9UBN7); experiment: Inhibition of HDAC6
T1 sequence (Q9UBN7 whole entry): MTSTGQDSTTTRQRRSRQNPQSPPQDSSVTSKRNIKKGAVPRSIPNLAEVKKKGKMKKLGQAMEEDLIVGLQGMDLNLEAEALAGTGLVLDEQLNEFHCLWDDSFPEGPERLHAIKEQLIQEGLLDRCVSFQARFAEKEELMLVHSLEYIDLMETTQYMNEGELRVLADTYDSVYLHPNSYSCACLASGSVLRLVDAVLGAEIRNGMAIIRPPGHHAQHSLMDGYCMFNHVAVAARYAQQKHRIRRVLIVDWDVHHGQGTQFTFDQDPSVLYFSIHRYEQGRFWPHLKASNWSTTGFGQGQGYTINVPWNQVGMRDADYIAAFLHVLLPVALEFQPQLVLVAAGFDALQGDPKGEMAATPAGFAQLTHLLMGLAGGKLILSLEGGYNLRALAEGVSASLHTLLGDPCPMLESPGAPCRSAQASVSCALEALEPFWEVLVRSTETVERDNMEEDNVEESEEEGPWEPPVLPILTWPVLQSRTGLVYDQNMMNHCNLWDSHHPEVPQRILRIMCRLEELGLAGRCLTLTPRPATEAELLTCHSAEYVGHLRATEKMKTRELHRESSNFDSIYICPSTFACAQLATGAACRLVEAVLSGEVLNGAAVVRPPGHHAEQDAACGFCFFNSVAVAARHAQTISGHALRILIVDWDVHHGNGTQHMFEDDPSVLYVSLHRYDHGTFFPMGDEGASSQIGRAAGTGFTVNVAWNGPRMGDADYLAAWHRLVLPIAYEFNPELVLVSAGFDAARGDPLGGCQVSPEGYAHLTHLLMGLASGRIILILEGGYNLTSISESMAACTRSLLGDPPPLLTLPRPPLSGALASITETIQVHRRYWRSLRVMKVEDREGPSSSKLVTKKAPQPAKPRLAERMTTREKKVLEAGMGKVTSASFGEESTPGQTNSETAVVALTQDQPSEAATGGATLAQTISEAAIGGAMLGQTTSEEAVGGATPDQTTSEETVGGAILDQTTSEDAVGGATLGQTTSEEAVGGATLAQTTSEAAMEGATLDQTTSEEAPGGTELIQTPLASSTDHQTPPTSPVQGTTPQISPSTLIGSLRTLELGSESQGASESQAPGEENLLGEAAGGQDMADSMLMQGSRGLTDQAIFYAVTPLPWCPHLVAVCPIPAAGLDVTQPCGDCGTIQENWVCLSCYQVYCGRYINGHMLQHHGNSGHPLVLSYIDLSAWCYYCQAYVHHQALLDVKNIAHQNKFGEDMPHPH

[3] = Clearance in mouse at 10 mg/kg, iv; format: ADME, organism-based; set-up: dose 10 mg/kg, route intravenous; settings: in vivo
[4] = Toxicity in human PC3 cells xenografted nude mouse; format: organism-based, PC-3; settings: in vivo
[5] = target: Histone deacetylase 2 (Homo sapiens, UniProt Q92769)
Histone deacetylase 2, sequence (Q92769 whole entry): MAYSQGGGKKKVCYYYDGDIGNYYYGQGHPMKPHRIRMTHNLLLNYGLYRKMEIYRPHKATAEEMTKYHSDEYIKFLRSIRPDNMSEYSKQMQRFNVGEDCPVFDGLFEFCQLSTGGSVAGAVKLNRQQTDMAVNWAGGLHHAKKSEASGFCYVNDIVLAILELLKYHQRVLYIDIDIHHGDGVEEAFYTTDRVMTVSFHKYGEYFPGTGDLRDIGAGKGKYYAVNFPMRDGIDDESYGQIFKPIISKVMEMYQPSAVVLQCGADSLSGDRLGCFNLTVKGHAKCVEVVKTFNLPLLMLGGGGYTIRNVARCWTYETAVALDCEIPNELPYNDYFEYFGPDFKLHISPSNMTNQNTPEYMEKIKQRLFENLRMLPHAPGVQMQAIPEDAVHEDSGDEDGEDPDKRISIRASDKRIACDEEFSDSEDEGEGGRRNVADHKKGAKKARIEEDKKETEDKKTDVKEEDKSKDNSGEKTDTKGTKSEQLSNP

[6] = target: T2, Histone deacetylase 11 (Homo sapiens, UniProt Q96DB2); experiment: Inhibition of HDAC11
T2 sequence (Q96DB2 whole entry): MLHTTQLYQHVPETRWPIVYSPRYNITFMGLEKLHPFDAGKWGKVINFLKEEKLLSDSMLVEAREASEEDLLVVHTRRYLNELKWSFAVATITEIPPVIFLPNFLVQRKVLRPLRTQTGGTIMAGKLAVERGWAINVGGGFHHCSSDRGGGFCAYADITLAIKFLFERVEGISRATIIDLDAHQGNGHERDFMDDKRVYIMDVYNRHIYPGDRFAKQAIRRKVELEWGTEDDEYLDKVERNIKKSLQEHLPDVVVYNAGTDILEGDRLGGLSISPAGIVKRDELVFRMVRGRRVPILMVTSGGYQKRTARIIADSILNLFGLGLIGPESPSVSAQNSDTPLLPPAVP

[7] = Elimination half life in mouse at 10 mg/kg, iv; format: ADME, organism-based; set-up: dose 10 mg/kg, route intravenous; settings: in vivo, read-out: beta t1/2 (converted)
[8] = Half life in rat liver microsome; format: ADME; settings: liver microsomes
[9] = target: Histone deacetylase 4 (Homo sapiens, UniProt P56524); experiment: Inhibition of HDAC4
Histone deacetylase 4, sequence (P56524 whole entry): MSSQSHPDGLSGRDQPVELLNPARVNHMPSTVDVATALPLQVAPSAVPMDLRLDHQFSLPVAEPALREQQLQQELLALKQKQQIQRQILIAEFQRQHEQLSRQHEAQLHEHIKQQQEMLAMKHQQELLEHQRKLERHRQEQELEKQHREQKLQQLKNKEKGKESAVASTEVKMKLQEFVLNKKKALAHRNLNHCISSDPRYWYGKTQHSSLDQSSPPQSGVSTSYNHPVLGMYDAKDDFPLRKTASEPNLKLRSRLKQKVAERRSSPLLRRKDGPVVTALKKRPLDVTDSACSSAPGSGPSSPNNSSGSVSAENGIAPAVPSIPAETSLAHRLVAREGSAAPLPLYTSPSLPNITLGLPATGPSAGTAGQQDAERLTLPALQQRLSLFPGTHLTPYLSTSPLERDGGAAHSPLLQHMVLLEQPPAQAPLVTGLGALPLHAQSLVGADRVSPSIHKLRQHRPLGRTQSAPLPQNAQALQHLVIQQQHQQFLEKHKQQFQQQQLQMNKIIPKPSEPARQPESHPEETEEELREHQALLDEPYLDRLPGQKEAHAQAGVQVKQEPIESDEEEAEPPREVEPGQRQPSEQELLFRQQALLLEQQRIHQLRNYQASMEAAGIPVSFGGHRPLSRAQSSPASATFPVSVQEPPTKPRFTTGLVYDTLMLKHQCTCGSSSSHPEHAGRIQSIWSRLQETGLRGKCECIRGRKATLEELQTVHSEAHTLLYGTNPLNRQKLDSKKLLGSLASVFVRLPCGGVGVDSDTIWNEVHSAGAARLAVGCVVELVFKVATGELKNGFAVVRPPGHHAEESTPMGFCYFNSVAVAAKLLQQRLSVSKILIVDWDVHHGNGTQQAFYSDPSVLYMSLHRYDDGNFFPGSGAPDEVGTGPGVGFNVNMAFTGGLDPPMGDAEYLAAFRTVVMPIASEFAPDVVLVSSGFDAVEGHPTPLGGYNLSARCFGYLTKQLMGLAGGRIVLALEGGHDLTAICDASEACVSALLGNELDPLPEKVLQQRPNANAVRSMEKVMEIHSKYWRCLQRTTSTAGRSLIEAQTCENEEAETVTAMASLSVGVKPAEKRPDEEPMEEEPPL

[10] = test system: Mus musculus; experiment: Toxicity in human HCT116 cells xenografted BALB/c mouse at 200 mg/kg, po; format: organism-based, HCT-116; set-up: dose 200 mg/kg, route oral; settings: in vivo
[11] = Octanol-water distribution coefficient, log D of the compound; format: physicochemical
[12] = test system: PC-3; experiment: Antiproliferative activity against human PC3 cells; format: functional, cell-based
[13] = target: T3, Histone deacetylase 1 (Homo sapiens, UniProt Q13547); experiment: Inhibition of HDAC1 in human COLO205 cells assessed as induction of histone H3 acetylation at 10 uM by Western-immuno blotting; format: cell-based; settings: COLO 205
T3 sequence (Q13547 whole entry): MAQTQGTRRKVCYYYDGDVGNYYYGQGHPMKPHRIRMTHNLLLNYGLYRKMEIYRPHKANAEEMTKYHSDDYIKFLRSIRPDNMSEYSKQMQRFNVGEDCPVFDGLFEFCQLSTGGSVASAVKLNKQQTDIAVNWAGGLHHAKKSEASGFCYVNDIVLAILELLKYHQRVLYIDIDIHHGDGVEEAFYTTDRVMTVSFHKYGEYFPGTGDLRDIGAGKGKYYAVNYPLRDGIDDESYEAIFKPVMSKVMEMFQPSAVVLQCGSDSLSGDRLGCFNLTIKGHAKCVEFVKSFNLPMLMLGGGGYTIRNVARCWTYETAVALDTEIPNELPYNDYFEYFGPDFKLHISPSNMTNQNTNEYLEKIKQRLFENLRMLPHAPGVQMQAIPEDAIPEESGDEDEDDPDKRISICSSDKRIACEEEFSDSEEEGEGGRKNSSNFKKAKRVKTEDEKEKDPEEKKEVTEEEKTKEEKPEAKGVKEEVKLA

[14] = target: Histone deacetylase 9 (Homo sapiens, UniProt Q9UKV0); experiment: Inhibition of HDAC9
Histone deacetylase 9, sequence (Q9UKV0 whole entry): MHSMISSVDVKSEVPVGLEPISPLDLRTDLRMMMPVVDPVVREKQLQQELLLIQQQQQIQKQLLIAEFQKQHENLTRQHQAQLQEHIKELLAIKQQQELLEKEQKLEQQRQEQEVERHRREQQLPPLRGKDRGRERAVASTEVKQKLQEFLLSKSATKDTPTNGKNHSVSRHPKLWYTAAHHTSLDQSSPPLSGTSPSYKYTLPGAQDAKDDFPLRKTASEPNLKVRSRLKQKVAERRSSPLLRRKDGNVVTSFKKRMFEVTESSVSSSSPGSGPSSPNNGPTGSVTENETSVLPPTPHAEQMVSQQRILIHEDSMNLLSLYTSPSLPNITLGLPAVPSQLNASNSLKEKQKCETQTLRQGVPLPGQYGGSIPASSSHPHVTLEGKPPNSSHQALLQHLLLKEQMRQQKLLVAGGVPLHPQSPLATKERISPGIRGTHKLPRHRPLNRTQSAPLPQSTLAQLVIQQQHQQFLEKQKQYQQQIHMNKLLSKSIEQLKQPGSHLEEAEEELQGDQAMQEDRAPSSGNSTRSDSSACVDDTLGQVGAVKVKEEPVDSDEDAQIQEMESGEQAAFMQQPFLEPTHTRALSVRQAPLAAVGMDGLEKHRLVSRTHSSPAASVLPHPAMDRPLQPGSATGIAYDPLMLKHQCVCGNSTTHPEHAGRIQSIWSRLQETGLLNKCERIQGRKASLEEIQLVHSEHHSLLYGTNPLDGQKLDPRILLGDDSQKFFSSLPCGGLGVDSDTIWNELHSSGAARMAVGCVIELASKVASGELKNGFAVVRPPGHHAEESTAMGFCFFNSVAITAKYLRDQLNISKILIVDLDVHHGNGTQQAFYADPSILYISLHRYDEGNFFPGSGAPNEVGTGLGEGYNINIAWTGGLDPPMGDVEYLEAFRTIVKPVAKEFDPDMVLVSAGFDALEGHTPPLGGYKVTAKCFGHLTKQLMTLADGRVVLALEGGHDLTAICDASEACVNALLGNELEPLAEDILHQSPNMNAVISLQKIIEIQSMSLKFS

[15] = Half life in mouse liver microsome; format: ADME; settings: liver microsomes
[16] = test system: HCT-116; experiment: Antiproliferative activity against human HCT116 cells; format: functional, cell-based
[17] = Solubility at pH 7; format: physicochemical; settings: buffer
[18] = target: Histone deacetylase 5 (Homo sapiens, UniProt Q9UQL6); experiment: Inhibition of HDAC5
Histone deacetylase 5, sequence (Q9UQL6 whole entry): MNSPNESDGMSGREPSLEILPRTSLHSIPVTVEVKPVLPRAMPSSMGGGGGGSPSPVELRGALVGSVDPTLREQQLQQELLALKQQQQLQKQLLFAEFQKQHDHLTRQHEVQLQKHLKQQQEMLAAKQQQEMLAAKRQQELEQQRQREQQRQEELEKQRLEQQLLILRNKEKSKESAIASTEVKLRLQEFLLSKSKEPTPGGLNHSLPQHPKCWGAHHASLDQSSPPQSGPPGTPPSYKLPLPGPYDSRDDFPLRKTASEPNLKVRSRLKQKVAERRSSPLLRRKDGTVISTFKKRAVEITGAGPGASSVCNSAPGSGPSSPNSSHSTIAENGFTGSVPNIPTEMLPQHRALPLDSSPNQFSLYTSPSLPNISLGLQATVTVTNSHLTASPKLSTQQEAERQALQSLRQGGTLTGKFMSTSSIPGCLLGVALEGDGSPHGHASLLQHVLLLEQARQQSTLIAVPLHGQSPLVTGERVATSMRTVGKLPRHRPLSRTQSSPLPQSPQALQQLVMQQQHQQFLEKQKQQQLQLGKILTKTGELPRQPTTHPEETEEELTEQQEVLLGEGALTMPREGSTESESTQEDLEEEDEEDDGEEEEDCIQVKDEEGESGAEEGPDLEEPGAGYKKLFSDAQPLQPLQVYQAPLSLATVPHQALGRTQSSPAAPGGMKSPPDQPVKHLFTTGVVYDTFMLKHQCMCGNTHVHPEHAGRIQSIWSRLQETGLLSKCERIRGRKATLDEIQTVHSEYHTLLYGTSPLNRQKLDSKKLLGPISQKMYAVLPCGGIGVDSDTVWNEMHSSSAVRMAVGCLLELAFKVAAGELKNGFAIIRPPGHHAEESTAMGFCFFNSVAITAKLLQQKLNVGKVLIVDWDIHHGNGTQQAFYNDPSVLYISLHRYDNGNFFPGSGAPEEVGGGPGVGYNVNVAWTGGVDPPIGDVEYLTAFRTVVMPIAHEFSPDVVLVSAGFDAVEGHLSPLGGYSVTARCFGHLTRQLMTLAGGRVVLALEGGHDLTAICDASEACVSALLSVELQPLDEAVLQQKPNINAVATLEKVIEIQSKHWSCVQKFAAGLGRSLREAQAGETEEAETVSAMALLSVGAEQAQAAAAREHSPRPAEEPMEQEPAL

[19] = test system: A2780; experiment: Antiproliferative activity against human A2780 cells; format: functional, cell-based
[20] = test system: PC-3; experiment: animal or person; format: functional, Homo sapiens; settings: Mus musculus, PC-3, ip, route intraperitoneal, read-out: TGI
[21] = test system: HCT-116; experiment: Antitumor activity against human HCT116 cells xenografted in BALB/c mouse at 100 mg/kg, po after 21 days; format: functional; settings: HCT-116, 504 h, read-out: TGI
[22] = Half life in human liver microsome; format: ADME; settings: liver microsomes
[23] = Thermodynamic solubility at pH 7.4; format: physicochemical; settings: buffer, read-out: Therm_solubility
[24] = target: T3, Histone deacetylase 1
[25] = test system: Ramos; experiment: Antiproliferative activity against human Ramos cells; format: functional, cell-based
[26] = Oral bioavailability in mouse at 50 mg/kg, po; settings: in vivo
[27] = test system: NCI-H522; experiment: Antiproliferative activity against human NCI-H522 cells; format: functional, cell-based

For `O=C(CCCCCNC(=O)NC(=O)c1ccccc1)NO`, which Cmax [1] is on record?
Its Cmax is 22.4 µM.

What about the Ki [2] of the same molecule?
The Ki was 7 nM.

What about the clearance [3] of the same molecule?
Its clearance is 83.8 mL/min/kg.

And the MTD [4]?
The MTD was 200 mg/kg.

And the Ki [5]?
Its Ki is 44 nM.

And the Ki [6]?
The Ki was 39 nM.

And the half-life [7]?
Its half-life is 1.54 h.

And the half-life [8]?
Its half-life is greater than 1 h.

What about the Ki [9] of the same molecule?
The Ki was 20 nM.

And the Activity [10]?
Its Activity is “Toxic”.

And the logD [11]?
Its logD is 0.75.

And the IC50 [12]?
The IC50 was 740 nM.

What about the Activity [13] of the same molecule?
Its Activity is “Active”.

What about the Ki [14] of the same molecule?
Its Ki is 55 nM.

What about the half-life [15] of the same molecule?
Its half-life is greater than 0.5 h.

And the IC50 [16]?
The IC50 was 1580 nM.

And the solubility [17]?
Its solubility is 177 µM (≈ 51.9 µg/mL).

And the Ki [18]?
Its Ki is 46 nM.

What about the IC50 [19] of the same molecule?
The IC50 was 700 nM.

And the inhibition in vivo at 160 mg/kg [20]?
The inhibition in vivo at 160 mg/kg was 57%.

And the inhibition in vivo at 100 mg/kg [21]?
Its inhibition in vivo at 100 mg/kg is 80%.

And the half-life [22]?
Its half-life is greater than 1 h.

And the solubility thermodynamic [23]?
The solubility thermodynamic was 526 µg/mL (≈ 1790 µM).

And the IC50 [24]?
The IC50 was 53 nM.

And the Ki [24]?
Its Ki is 16 nM.

What about the IC50 [25] of the same molecule?
Its IC50 is 460 nM.

And the bioavailability [26]?
Its bioavailability is 62%.

And the IC50 [27]?
Its IC50 is 500 nM.
